We go through two compounds from patent US20230372253A1, “NOVEL LIPID-BASED SMALL MOLECULE INTEGRIN RECEPTOR-LIGAND AGONIST ADJUVANTS CARRIER COMPOSITIONS, INTEGRIN AGONIST ADJUVANT PHARMACEUTICAL COMPOSITIONS THEREFROM, AND METHODS FOR MAKING AND USING SAME” (7 Hills Pharma LLC, priority 2022, published 2023).

One may read the Solubility as how much of the substance goes into solution per volume. A word on the logP: it is a log measure of how a compound divides between an organic and an aqueous phase. A word on the Cmax: it is the highest concentration seen after dosing. One may read the half-life as the time needed for the level to fall by half in the phase considered. Low readings indicate rapid decline, high ones slow decline. As a reminder, the Tmax is the time at which the peak concentration occurs.

Molecules are shown by their SMILES. Read-outs that look alike come from different tables or passages of the source.

A short description of one data set: Solubility of 7HP349. Format: physicochemical.
A short description of a further data set: LogP. The class given is physicochemical. The text has this:
The term “Log P” means the ratio of the concentrations of a substance in two heterogenous phases in equilibrium with each other. Typically, the organic solvent in n-octanol, but n-hexane; toluene; chlorobenzene; dichloromethane; methyl tert-butyl ether; isopropyl acetate; benzyl alcohol; cyclohexanol; or n-butanol may be used as well.

In a further data set the target is CYP3A4 (Homo sapiens, UniProt P08684). Description: Cytochrome P450 Metabolism. The class given is in vitro ADME.
In another data set the target is CYP2C19 (Homo sapiens, UniProt P33261). Kind of data set: Cytochrome P450 Metabolism. The class given is in vitro ADME.
Another data set in a line: Human SAD PK. Format: in vivo. To be noted: plasma, oral; for AUC(0-t): human; for AUC(0-t) / Cmax / half-life: mean ± SD; for Cmax / half-life / Tmax: n = 6; for Tmax: median. On the procedure:
Preferred lipid-based formulation based on U28 provided adequate exposure in human. The optimal PK exposure to engage integrins and improve adjuvant activity is systemic plasma exposure of AUC0-t between about 50 ng/mL/hr and about 100 ng/mL/hr.

Chain of CYP3A4 (P08684 whole entry): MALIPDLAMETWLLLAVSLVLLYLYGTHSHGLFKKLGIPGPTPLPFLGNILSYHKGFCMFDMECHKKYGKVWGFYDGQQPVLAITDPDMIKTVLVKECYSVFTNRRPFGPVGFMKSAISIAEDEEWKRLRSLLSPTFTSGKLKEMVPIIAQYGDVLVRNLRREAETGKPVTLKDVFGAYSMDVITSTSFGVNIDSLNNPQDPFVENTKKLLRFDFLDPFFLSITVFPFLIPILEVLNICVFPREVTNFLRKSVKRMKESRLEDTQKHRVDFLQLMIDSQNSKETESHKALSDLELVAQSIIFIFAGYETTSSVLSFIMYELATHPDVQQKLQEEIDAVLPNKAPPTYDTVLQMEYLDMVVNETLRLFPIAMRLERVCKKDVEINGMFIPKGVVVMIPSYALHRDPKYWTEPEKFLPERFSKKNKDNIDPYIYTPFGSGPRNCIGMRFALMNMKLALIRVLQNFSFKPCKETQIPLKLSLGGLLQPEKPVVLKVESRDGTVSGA
Chain of CYP2C19 (P33261 whole entry): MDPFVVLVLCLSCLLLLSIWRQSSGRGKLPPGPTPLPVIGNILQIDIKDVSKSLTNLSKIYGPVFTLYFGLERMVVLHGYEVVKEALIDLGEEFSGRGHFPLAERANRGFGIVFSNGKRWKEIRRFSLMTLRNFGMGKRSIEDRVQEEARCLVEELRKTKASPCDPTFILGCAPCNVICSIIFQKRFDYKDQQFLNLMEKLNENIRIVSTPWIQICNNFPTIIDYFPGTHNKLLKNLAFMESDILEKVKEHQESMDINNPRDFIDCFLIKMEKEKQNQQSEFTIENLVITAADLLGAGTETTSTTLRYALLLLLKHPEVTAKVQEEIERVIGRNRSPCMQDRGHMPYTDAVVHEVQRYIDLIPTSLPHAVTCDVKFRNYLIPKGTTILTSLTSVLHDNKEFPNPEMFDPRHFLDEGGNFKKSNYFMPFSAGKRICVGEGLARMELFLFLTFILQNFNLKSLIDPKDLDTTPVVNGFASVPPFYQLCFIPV

`O=C(OCCOCCOCCOC(=O)N(Cc1cccs1)Cc1cccs1)N(Cc1cccs1)Cc1cccs1` [Form 7HP349, 3-oxo-1-(2-thienyl)-2-(2-thienylmethyl)-4,7,10-trioxa-2-azadodecan-12-yl bis(2-thienylmethyl)carbamate]: the Solubility in the data set “Solubility of 7HP349” (aqueous buffers and simulated gastrointestinal fluids, aqueous buffer, hydrochloric acid-potassium chloride buffer (pH 2), citrate buffer (pH 4), sodium phosphate buffer (pH 7.4), SGF, FaSSIF and FeSSIF, read-out: Solubility) was less than 0.01 µM; in “Solubility of 7HP349” (common organic solvents such as methanol, ethanol, ethyl acetate, acetone, DMSO, DMF, DCM, etc.), “Highly soluble in common organic solvents such”; in the data set “Solubility of 7HP349” (in water), “Insoluble in water”; in “Solubility of 7HP349” (non-polar organic solvents such as hexane, heptane, etc.), “Practically insoluble in non-polar organic solvents”; in “Solubility of 7HP349” (oil or lipid, vegetable oils such as corn, soybean, canola oils typically containing >C16 fatty acids, read-out: Solubility), not above 50 mg/mL. Also, in “LogP”, the logP is 6.22. Also, the “Cytochrome P450 Metabolism” value on CYP3A4 was “Substrate for CYP3A4 and CYP2C19”; at CYP2C19, “Substrate for CYP3A4 and CYP2C19”. Also, the AUC(0-t) in the data set “Human SAD PK” (50 mg, cohort 1, 50 mg, n = 6, read-out: AUC0-10 h) was 12.5 ng·h/mL; in the data set “Human SAD PK” (50 mg, cohort 1, 50 mg, n = 6, read-out: AUClast), 31.8 ± 21.5 ng·h/mL; in “Human SAD PK” (100 mg, cohort 2, 100 mg, n = 6, read-out: AUC0-10 h) it was 115 ± 57.5 ng·h/mL; in the data set “Human SAD PK” (100 mg, cohort 2, 100 mg, n = 6, read-out: AUClast) it was 165 ng·h/mL; in “Human SAD PK” (200 mg, cohort 3, 200 mg, n = 6, read-out: AUC0-10 h), 571 ± 195 ng·h/mL; in “Human SAD PK” (200 mg, cohort 3, 200 mg, n = 6, read-out: AUClast), 755 ± 241 ng·h/mL. Further, the AUC(0-t) in “Human SAD PK” (300 mg, cohort 4, 300 mg, n = 6, read-out: AUC0-10 h) worked out at 938 ± 282 ng·h/mL; in “Human SAD PK” (300 mg, cohort 4, 300 mg, n = 6, read-out: AUClast), 1350 ± 316 ng·h/mL. Besides, the Cmax in the data set “Human SAD PK” (cohort 1, 50 mg) came out at 10.2 ± 8.17 ng/mL; in the data set “Human SAD PK” (cohort 2, 100 mg) it was 36.1 ± 16.4 ng/mL; in “Human SAD PK” (cohort 3, 200 mg) it was 166 ± 61.8 ng/mL; in the data set “Human SAD PK” (cohort 4, 300 mg) it was 321 ng/mL. Moreover, the half-life in the data set “Human SAD PK” (cohort 1, 50 mg) was 8.9 h; in “Human SAD PK” (cohort 2, 100 mg) it was 20.6 ± 15 h; in “Human SAD PK” (cohort 3, 200 mg) it was 34.6 ± 20.7 h; in “Human SAD PK” (cohort 4, 300 mg), 29.7 ± 15.4 h. For the same compound, the Tmax in the data set “Human SAD PK” (cohort 1, 50 mg) came to 2.5 h; in the data set “Human SAD PK” (cohort 2, 100 mg) it was 2 h; in “Human SAD PK” (cohort 3, 200 mg) it was 2 h; in the data set “Human SAD PK” (cohort 4, 300 mg), 2 h.
As for `O=C(OCCOCCOC(=O)N(Cc1cccs1)Cc1cccs1)N(Cc1cccs1)Cc1cccs1` [Form 7HP577, 3-oxo-1-(2-thienyl)-2-(2-thienylmethyl)-4,7-dioxa-2-azanonan-9-yl bis(2-thienylmethyl)carbamate], the logP in the data set “LogP” is 6.58.
